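Compound exposure: 48 hours, 5 concentrations, 96-well plates. TGI: concentration producing complete growth inhibition.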
Assays:
Test in all cases: growth of human tumour cells (NCI), 48 h
[1] = system: HT29 colon
[2] = system: SNB-19 CNS
[3] = system: SR leukemia
[4] = system: HCC-2998 colon
[5] = system: SK-MEL-28 melanoma
[6] = system: HCT-116 colon
[7] = system: OVCAR-5 ovarian
[8] = system: M14 melanoma
[9] = system: SF-268 CNS
[10] = system: DU-145 prostate
[11] = system: ACHN renal
[12] = system: NCI-H226 lung
[13] = system: OVCAR-3 ovarian
[14] = system: NCI-H522 lung
[15] = system: MALME-3M melanoma
[16] = system: LOX IMVI melanoma
[17] = system: MDA-MB-231 breast
[18] = system: U251 CNS
[19] = system: UACC-62 melanoma
[20] = system: TK-10 renal
[21] = system: K-562 leukemia
[22] = system: CAKI-1 renal
[23] = system: CCRF-CEM leukemia
[24] = system: SW-620 colon
[25] = system: SK-MEL-5 melanoma
[26] = system: SNB-75 CNS
[27] = system: RPMI-8226 leukemia
[28] = system: UACC-257 melanoma
[29] = system: 786-0 renal
[30] = system: OVCAR-8 ovarian
[31] = system: PC-3 prostate
[32] = system: MDA-MB-435
[33] = system: NCI-H460 lung
[34] = system: HL-60(TB) leukemia
[35] = system: T-47D breast
[36] = system: UO-31 renal
[37] = system: NCI-H23 lung
[38] = system: HOP-62 NSCLC
[39] = system: OVCAR-4 ovarian
[40] = system: A498 renal
[41] = system: HCT-15 colon
[42] = system: A549 NSCLC
[43] = system: SN12C renal
[44] = system: SK-MEL-2 melanoma
[45] = system: MCF7 breast
[46] = system: IGROV1 ovarian
[47] = system: MOLT-4 leukemia
[48] = system: BT-549 breast
[49] = system: MDA-N
[50] = system: SF-295 CNS
[51] = system: COLO 205 colon
[52] = system: HS 578T breast
[53] = system: EKVX NSCLC
[54] = system: KM12 colon
[55] = system: SK-OV-3 ovarian
[56] = system: NCI/ADR-RES ovarian
[57] = system: SF-539 CNS
[58] = system: RXF 393 renal
[59] = system: HOP-92 NSCLC

Cc1[nH]c(=O)nc(N/N=C/c2c3ccccc3c(Cl)c3ccccc23)c1C(=O)Nc1ccc(Cl)cc1
TGI [1]: > 100 µM
TGI [2]: > 100 µM
TGI [3]: > 100 µM
TGI [4]: > 100 µM
TGI [5]: > 100 µM
TGI [6]: > 100 µM
TGI [7]: > 100 µM
TGI [8]: > 100 µM
TGI [9]: > 100 µM
TGI [10]: > 100 µM
TGI [11]: > 100 µM
TGI [12]: > 100 µM
TGI [13]: > 100 µM
TGI [14]: > 100 µM
TGI [15]: > 100 µM
TGI [16]: > 100 µM
TGI [17]: > 100 µM
TGI [18]: > 100 µM
TGI [19]: > 100 µM
TGI [20]: > 100 µM
TGI [21]: > 100 µM
TGI [22]: > 100 µM
TGI [23]: 89.3 µM
TGI [24]: > 100 µM
TGI [25]: > 100 µM
TGI [26]: > 100 µM
TGI [27]: > 100 µM
TGI [28]: > 100 µM
TGI [29]: > 100 µM
TGI [30]: > 100 µM
TGI [31]: > 100 µM
TGI [32]: > 100 µM
TGI [33]: > 100 µM
TGI [34]: 44.7 µM
TGI [35]: > 100 µM
TGI [36]: > 100 µM
TGI [37]: > 100 µM
TGI [38]: > 100 µM
TGI [39]: > 100 µM
TGI [40]: > 100 µM
TGI [41]: > 100 µM
TGI [42]: > 100 µM
TGI [43]: > 100 µM
TGI [44]: > 100 µM
TGI [45]: > 100 µM
TGI [46]: > 100 µM
TGI [47]: > 100 µM
TGI [48]: > 100 µM
TGI [49]: > 100 µM

O=c1c(NCc2ccccc2)c(C2(c3ccccc3F)SCCCS2)c1=O
TGI [50]: > 100 µM
TGI [1]: > 100 µM
TGI [2]: > 100 µM
TGI [51]: > 100 µM
TGI [5]: > 100 µM
TGI [6]: > 100 µM
TGI [7]: > 100 µM
TGI [8]: > 100 µM
TGI [9]: > 100 µM
TGI [10]: > 100 µM
TGI [11]: > 100 µM
TGI [52]: > 100 µM
TGI [12]: > 100 µM
TGI [13]: > 100 µM
TGI [14]: > 100 µM
TGI [53]: > 100 µM
TGI [16]: > 100 µM
TGI [17]: > 100 µM
TGI [18]: > 100 µM
TGI [19]: > 100 µM
TGI [20]: > 100 µM
TGI [22]: > 100 µM
TGI [23]: > 100 µM
TGI [24]: > 100 µM
TGI [25]: > 100 µM
TGI [26]: > 100 µM
TGI [54]: > 100 µM
TGI [55]: > 100 µM
TGI [28]: > 100 µM
TGI [56]: > 100 µM
TGI [29]: > 100 µM
TGI [30]: > 100 µM
TGI [31]: > 100 µM
TGI [32]: > 100 µM
TGI [33]: > 100 µM
TGI [34]: > 100 µM
TGI [57]: > 100 µM
TGI [35]: > 100 µM
TGI [36]: > 100 µM
TGI [37]: > 100 µM
TGI [38]: > 100 µM
TGI [39]: > 100 µM
TGI [40]: > 100 µM
TGI [58]: > 100 µM
TGI [59]: > 100 µM
TGI [41]: > 100 µM
TGI [42]: > 100 µM
TGI [43]: > 100 µM
TGI [44]: > 100 µM
TGI [45]: > 100 µM
TGI [46]: > 100 µM
TGI [47]: > 100 µM
TGI [48]: > 100 µM
TGI [49]: > 100 µM

O=S(=O)(F)Cc1ccccc1
TGI [50]: > 100 µM
TGI [1]: > 100 µM
TGI [2]: > 100 µM
TGI [51]: > 100 µM
TGI [3]: > 100 µM
TGI [4]: > 100 µM
TGI [5]: > 100 µM
TGI [6]: > 100 µM
TGI [7]: > 100 µM
TGI [8]: > 100 µM
TGI [9]: > 100 µM
TGI [10]: > 100 µM
TGI [11]: > 100 µM
TGI [12]: > 100 µM
TGI [13]: > 100 µM
TGI [14]: > 100 µM
TGI [53]: > 100 µM
TGI [15]: 70 µM
TGI [16]: > 100 µM
TGI [17]: > 100 µM
TGI [18]: > 100 µM
TGI [19]: > 100 µM
TGI [20]: > 100 µM
TGI [21]: > 100 µM
TGI [22]: > 100 µM
TGI [23]: > 100 µM
TGI [24]: > 100 µM
TGI [25]: > 100 µM
TGI [26]: > 100 µM
TGI [54]: > 100 µM
TGI [27]: > 100 µM
TGI [55]: > 100 µM
TGI [28]: > 100 µM
TGI [56]: > 100 µM
TGI [29]: > 100 µM
TGI [30]: > 100 µM
TGI [31]: > 100 µM
TGI [32]: > 100 µM
TGI [33]: > 100 µM
TGI [57]: > 100 µM
TGI [36]: > 100 µM
TGI [37]: > 100 µM
TGI [38]: > 100 µM
TGI [39]: > 100 µM
TGI [40]: > 100 µM
TGI [59]: > 100 µM
TGI [41]: > 100 µM
TGI [42]: > 100 µM
TGI [43]: > 100 µM
TGI [44]: > 100 µM
TGI [45]: > 100 µM
TGI [46]: > 100 µM
TGI [47]: > 100 µM
TGI [48]: > 100 µM
TGI [49]: > 100 µM

COc1ccc2c(c1)/C(=C\c1c(Cl)nc3n1CCS3)C(=O)N2
TGI [50]: 44.5 µM
TGI [1]: 16.3 µM
TGI [2]: > 100 µM
TGI [51]: 10.9 µM
TGI [4]: 8.31 µM
TGI [5]: > 100 µM
TGI [6]: 25.5 µM
TGI [7]: 74.1 µM
TGI [8]: > 100 µM
TGI [9]: > 100 µM
TGI [10]: 72.5 µM
TGI [11]: > 100 µM
TGI [52]: 44.1 µM
TGI [13]: 17.8 µM
TGI [14]: 24.4 µM
TGI [53]: 77 µM
TGI [15]: > 100 µM
TGI [16]: > 100 µM
TGI [17]: 27.2 µM
TGI [18]: 57.6 µM
TGI [19]: 16.3 µM
TGI [20]: 28.1 µM
TGI [21]: > 100 µM
TGI [22]: > 100 µM
TGI [23]: 79.2 µM
TGI [24]: > 100 µM
TGI [25]: 17.2 µM
TGI [26]: 36.5 µM
TGI [54]: 23.2 µM
TGI [27]: > 100 µM
TGI [55]: 66.9 µM
TGI [28]: 25.8 µM
TGI [56]: 88.3 µM
TGI [29]: 45.9 µM
TGI [30]: > 100 µM
TGI [31]: 20 µM
TGI [32]: 4.82 µM
TGI [33]: 18.9 µM
TGI [34]: 17.2 µM
TGI [57]: 24.9 µM
TGI [35]: 32.7 µM
TGI [36]: > 100 µM
TGI [37]: 72.2 µM
TGI [38]: > 100 µM
TGI [39]: > 100 µM
TGI [40]: 33.2 µM
TGI [58]: 9.91 µM
TGI [59]: > 100 µM
TGI [41]: 62.1 µM
TGI [42]: > 100 µM
TGI [43]: 53.3 µM
TGI [45]: 48.5 µM
TGI [46]: > 100 µM
TGI [47]: > 100 µM
TGI [48]: 44 µM
TGI [49]: 6.54 µM

Source: PubChem BioAssay (NCI)
